The values below come from patent US8546414B2, “Ion channel modulators and methods of use” (Vertex Pharmaceuticals Incorporated, priority 2004, dated 2013).

What all share (type): cell-based
The target in one test is T1, NaV1.3 (Homo sapiens, UniProt Q9NY46).
T1 construct: expressed in transfected cells; host or cells: HEK293
Kind of test: VIPR optical membrane potential assay with electrical stimulation, NaV1.3. The following applies: Table 9, NaV 1.3 receptors. The procedure, abridged:
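HEK293 cells stably expressing NaV1.3, stained with CC2-DMPE (10 μM final) then DiSBAC2(3) with ABSC1, 30 min each at RT; compounds added with oxonol. Electrical stimulation for 3 s; 460/580 nm background-subtracted emission ratio Rf/Ri, normalised to tetracaine (positive) and untreated (negative) controls.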

For the next test, the target named is T2, CaV2.2 (Homo sapiens, UniProt Q00975).
T2 construct: expressed in transfected cells; host or cells: HEK293
Kind of test: VIPR optical membrane potential assay with electrical stimulation, CaV2.2. The conditions noted are these: Table 9, CaV 2.2 receptors. The procedure, abridged:
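HEK293 cells stably expressing CaV2.2 stained with CC2-DMPE/DiSBAC2(3) voltage-sensitive dyes (10 μM final CC2-DMPE, 30 min, RT), then compound added and cells electrically stimulated for 3-5 s. Read-out: background-subtracted 460/580 nm emission ratio; response R=Rf/Ri (post- vs pre-stimulus ratio); antagonism seen as reduced response.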

A further test concerns the target NaV1.8 (Homo sapiens, UniProt Q9Y5Y9). Briefly: VIPR optical membrane potential assay, NaV1.8 (other subtypes in an analogous mode). The following applies: Table 9, NaV 1.8 receptors. The procedure:
Antagonist properties of test compounds were assessed as follows. Cells expressing the NaV of interest were placed into microtiter plates. After an incubation period, the cells were stained with fluorescent dyes sensitive to the transmembrane potential. The test compounds were added to the microtiter plate. The cells were stimulated with either chemical or electrical means to evoke a NaV dependent membrane potential change from unblocked channels, which was detected and measured with trans-membrane potential-sensitive dyes. Antagonists were detected as a decreased membrane potential response to the stimulus.
24 hours before the assay on VIPR, CHO cells endogenously expressing a NaV 1.2 type voltage-gated NaV are seeded in 96-well poly-lysine coated plates at 60,000 cells per well. […] Plates are incubated in the dark for 30 minutes at room temperature. • 4) While the cells are being stained with coumarin, a […] oxonol solution in BS#2 is prepared. […] As before, the residual volume should be 40 μL. • 6) Upon removing the bath, the cells are loaded with 80 μL of the DiSBAC2(3) solution, after which test compound, dissolved in DMSO, is added to achieve the desired test concentration to each well from the drug addition plate and mixed thoroughly. The volume in the well should be roughly 121 μL. The cells are then incubated for 20-30 minutes. • 7) Once the incubation is complete, the cells are ready to be assayed on VIPR® with a sodium addback protocol. 120 μL of Bath solution #1 is added to stimulate the NaV dependent depolarization. […] tetracaine was used as an antagonist positive control for block of the NaV channel. Analysis of VIPR® Data:
The following is an example of how NaV1.3 inhibition activity is measured using the optical membrane potential method#2. Other subtypes are performed in an analogous mode in a cell line expressing the NaV of interest.

Sequence of NaV1.8 (Q9Y5Y9 whole entry): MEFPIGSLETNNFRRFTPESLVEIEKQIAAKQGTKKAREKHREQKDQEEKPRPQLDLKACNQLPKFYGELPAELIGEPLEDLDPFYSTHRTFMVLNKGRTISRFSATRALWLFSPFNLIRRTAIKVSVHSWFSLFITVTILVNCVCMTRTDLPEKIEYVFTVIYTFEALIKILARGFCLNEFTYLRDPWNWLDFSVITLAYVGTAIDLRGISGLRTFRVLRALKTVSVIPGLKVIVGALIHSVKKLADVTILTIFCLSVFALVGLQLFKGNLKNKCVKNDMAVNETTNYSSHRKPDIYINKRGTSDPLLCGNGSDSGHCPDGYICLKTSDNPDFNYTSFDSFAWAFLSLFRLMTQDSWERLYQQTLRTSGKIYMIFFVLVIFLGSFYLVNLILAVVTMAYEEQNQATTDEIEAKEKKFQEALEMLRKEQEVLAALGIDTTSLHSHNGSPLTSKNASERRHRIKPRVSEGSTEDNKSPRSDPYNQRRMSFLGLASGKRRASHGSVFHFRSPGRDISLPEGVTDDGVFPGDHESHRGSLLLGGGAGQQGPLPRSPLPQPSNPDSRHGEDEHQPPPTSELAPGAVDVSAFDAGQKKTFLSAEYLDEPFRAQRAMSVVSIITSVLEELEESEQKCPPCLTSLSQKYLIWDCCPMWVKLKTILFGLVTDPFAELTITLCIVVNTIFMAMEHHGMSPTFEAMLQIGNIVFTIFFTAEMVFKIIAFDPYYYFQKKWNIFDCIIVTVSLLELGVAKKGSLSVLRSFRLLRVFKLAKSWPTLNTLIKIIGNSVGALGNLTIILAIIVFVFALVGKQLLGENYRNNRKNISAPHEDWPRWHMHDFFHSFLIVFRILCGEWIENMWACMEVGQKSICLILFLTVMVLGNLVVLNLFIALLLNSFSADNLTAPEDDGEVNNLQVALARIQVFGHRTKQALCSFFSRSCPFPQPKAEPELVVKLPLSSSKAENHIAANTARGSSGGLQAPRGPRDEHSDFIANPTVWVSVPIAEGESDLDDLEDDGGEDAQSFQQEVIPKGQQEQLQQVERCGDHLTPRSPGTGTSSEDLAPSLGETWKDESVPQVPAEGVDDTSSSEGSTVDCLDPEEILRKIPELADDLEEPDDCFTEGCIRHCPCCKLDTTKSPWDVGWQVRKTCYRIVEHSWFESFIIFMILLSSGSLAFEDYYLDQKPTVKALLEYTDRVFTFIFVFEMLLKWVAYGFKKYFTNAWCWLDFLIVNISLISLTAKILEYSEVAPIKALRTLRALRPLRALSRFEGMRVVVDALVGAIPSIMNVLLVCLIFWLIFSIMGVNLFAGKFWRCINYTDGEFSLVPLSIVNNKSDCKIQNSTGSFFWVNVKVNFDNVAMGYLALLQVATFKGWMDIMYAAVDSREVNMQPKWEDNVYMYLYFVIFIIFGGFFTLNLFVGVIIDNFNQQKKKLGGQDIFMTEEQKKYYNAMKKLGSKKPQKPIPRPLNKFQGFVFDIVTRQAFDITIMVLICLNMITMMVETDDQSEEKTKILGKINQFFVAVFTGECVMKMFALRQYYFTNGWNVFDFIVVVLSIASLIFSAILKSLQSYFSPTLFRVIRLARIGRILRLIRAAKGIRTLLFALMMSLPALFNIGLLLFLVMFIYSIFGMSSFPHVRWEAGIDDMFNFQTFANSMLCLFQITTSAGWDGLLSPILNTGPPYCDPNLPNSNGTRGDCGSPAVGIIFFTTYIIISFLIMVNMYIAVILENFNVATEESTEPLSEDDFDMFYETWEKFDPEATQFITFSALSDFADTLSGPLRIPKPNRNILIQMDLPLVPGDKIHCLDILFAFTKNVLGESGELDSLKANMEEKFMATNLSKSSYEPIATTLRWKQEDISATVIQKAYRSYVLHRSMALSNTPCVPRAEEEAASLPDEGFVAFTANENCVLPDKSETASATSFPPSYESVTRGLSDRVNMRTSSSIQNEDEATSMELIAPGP
T1 sequence (Q9NY46 whole entry): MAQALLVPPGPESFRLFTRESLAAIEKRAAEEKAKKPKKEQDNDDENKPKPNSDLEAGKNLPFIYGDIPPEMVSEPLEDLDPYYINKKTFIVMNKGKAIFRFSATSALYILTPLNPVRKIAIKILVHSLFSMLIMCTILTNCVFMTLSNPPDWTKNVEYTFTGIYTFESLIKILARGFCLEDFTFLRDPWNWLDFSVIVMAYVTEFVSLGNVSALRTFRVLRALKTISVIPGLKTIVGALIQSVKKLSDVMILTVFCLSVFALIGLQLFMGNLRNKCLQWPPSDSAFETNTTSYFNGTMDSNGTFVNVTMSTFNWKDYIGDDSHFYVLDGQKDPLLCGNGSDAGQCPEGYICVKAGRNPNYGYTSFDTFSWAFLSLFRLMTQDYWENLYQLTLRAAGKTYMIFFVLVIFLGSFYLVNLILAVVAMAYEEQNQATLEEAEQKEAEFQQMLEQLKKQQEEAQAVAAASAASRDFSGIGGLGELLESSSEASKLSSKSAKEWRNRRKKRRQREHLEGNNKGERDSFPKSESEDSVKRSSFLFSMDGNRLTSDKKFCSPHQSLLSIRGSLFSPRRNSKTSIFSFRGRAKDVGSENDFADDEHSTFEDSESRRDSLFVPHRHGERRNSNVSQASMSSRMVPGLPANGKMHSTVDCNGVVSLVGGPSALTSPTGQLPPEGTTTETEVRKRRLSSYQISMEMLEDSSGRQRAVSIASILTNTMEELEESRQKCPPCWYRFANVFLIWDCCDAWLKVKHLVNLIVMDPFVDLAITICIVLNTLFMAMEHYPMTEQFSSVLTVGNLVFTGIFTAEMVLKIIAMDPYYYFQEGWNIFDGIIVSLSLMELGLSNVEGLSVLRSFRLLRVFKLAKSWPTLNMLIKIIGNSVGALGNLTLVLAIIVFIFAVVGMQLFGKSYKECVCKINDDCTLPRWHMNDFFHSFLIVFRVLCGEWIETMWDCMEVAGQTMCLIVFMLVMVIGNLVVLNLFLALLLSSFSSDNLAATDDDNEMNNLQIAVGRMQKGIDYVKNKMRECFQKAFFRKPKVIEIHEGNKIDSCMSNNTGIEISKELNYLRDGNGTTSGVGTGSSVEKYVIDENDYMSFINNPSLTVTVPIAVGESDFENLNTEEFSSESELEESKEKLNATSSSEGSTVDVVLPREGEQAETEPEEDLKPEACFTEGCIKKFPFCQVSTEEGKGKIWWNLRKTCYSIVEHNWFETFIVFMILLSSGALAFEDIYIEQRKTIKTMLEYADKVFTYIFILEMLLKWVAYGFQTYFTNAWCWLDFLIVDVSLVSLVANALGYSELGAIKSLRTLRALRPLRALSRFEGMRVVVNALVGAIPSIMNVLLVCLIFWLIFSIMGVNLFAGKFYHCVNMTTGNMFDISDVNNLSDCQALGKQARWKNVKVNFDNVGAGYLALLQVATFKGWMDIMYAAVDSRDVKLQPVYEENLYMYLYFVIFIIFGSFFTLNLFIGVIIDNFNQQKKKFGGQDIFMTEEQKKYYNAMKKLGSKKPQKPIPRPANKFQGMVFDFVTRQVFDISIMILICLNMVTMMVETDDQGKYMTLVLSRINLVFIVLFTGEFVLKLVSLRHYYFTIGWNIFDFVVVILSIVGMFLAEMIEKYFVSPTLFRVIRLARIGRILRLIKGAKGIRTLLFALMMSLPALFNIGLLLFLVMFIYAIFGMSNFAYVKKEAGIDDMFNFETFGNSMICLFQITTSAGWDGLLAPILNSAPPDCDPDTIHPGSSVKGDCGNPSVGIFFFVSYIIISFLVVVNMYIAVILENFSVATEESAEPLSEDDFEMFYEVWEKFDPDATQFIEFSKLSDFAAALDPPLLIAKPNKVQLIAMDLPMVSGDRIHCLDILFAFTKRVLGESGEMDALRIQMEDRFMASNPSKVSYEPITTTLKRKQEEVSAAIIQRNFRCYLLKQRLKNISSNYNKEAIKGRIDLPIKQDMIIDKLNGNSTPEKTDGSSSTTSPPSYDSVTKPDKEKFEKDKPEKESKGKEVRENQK

Broadly, the IC50 is the concentration that gives 50% inhibition. For the molecule `CCC(COC)N(Cc1ccccc1)C(=O)c1c(C)nc(N2CCOCC2)nc1-c1ccccc1F` (stereo not drawn) [compound 49], the figures for the concentration for half-maximal inhibition (IC50) on NaV1.3, at CaV2.2 and at NaV1.8 were 2 to 10 µM, above 10 µM and above 10 µM, respectively.
Take `CC(C)N(Cc1ccc(N2CCCC2)cc1)C(=O)c1cnc(N2CCCCC2)nc1-c1ccccc1F` [compound 50]: the values for the concentration for half-maximal inhibition (IC50) against NaV1.3, against CaV2.2 and at NaV1.8 were above 10 µM, 2 to 10 µM and above 10 µM, respectively.
Regarding `CC(C)N(Cc1ccccc1)C(=O)c1cnc(Nc2ccc3c(c2)OCO3)nc1-c1ccccc1F` [compound 51], the figures for the concentration for half-maximal inhibition (IC50) against NaV1.3, against CaV2.2 and on NaV1.8 were 2 to 10 µM, 2 to 10 µM and above 10 µM, respectively.
With `CC1CCc2ccccc2N1C(=O)c1cnc(N2CCOCC2)nc1-c1ccccc1F` (stereo not drawn) [compound 52], the IC50 on NaV1.3 is 2 to 10 µM; against CaV2.2 it was 2 to 10 µM; against NaV1.8, above 10 µM.
On to `O=C(c1cnc(N2CCOCC2)nc1-c1ccccc1F)N(Cc1ccc2c(c1)CCO2)C1CC1` [compound 53], for which the concentration for half-maximal inhibition (IC50) is 2 to 10 µM against NaV1.3, 2 to 10 µM against CaV2.2 and above 10 µM on NaV1.8.
Turning to `CC(C)N(C(=O)c1cnc(N2CCC3CCCCC3C2)nc1-c1ccccc1F)c1cccc(C#N)c1` (stereo not drawn) [compound 54], the values for the 50% inhibitory concentration (IC50) at NaV1.3, at CaV2.2 and against NaV1.8 were 2 to 10 µM, 2 to 10 µM and above 10 µM, respectively.
For `COc1cccc(CN(C(=O)c2cnc(N3CCCCC3)nc2-c2ccccc2Cl)C(C)C)c1` [compound 55], the IC50 on NaV1.3, against CaV2.2 and against NaV1.8 was 2 to 10 µM throughout.
With `COc1cccc(CN(C(=O)c2cnc(N3CCOCC3)nc2-c2ccccc2F)C2CC2)c1` [compound 56], the figures for the IC50 against NaV1.3, at CaV2.2 and against NaV1.8 were above 10 µM, 2 to 10 µM and above 10 µM, respectively.
On to `CCC(=O)C1(c2ccccc2)CCN(C(=O)c2cnc(N3CCOCC3)nc2-c2ccccc2F)CC1` [compound 57], for which the IC50 against NaV1.3, at CaV2.2 and at NaV1.8 was above 10 µM in each case.
Consider `COc1cccc(N(C(=O)c2cnc(N3CCCCC3)nc2-c2ccccc2Cl)C2CC2)c1` [compound 58], for which the IC50 at NaV1.3, against CaV2.2 and on NaV1.8 was above 10 µM in each case.
In the case of `CC(C)N(Cc1ccc(C(C)(C)C)cc1)C(=O)c1cnc(N2CCSCC2)nc1-c1ccccc1F` [compound 59], the values for the IC50 against NaV1.3, against CaV2.2 and at NaV1.8 were 2 to 10 µM, below 2 µM and 2 to 10 µM, respectively.
`O=C(c1cnc(N2CCOCC2)nc1-c1ccccc1F)N(Cc1cccc(-c2ccncc2)c1)C1CC1` [compound 60]: the concentration for half-maximal inhibition (IC50) against NaV1.3 is above 10 µM; at CaV2.2 it was 2 to 10 µM; on NaV1.8, above 10 µM.
Take `COc1cccc(N(C(=O)c2cnc(N3CCSCC3)nc2-c2ccccc2F)C(C)C)c1` [compound 62]: the IC50 against NaV1.3 is 2 to 10 µM; at CaV2.2, 2 to 10 µM; on NaV1.8, above 10 µM.
For `Cc1ccc(Nc2ncc(C(=O)N(Cc3ccccc3)C(C)C)c(-c3ccccc3F)n2)cc1` [compound 63], the concentration for half-maximal inhibition (IC50) against NaV1.3, at CaV2.2 and at NaV1.8 was above 10 µM in each case.
`O=C(c1cnc(N2CCOCC2)nc1-c1ccccc1F)N(Cc1ccccc1)C1CCCCC1` [compound 64]: the IC50 at NaV1.3 is 2 to 10 µM; against CaV2.2 it was 2 to 10 µM; on NaV1.8, above 10 µM.
With `COc1cccc(N(C(=O)c2cnc(N3CCC4CCCCC4C3)nc2-c2ccccc2F)C2CCC2)c1` (stereo not drawn) [compound 65], the values for the IC50 against NaV1.3, on CaV2.2 and on NaV1.8 were above 10 µM, 2 to 10 µM and above 10 µM, respectively.
In the case of `CC(C)N(C(=O)c1cnc(N2CCCCC2)nc1-c1ccccc1F)c1cccc(O)c1` [compound 66], the IC50 against NaV1.3 is above 10 µM; on CaV2.2 it was 2 to 10 µM; at NaV1.8, above 10 µM.
As for `CC(C)N(C(=O)c1cnc(N2CCOCC2)nc1-c1ccccc1F)c1ccc2c(c1)OCCO2` [compound 67], the concentration for half-maximal inhibition (IC50) against NaV1.3, against CaV2.2 and on NaV1.8 was above 10 µM throughout.
Consider `COc1cccc(N(C(=O)c2cnc(N3CCC4CCCCC4C3)nc2-c2ccccc2F)C2CCOCC2)c1` (stereo not drawn) [compound 68], for which the values for the IC50 against NaV1.3, against CaV2.2 and on NaV1.8 were above 10 µM, 2 to 10 µM and above 10 µM, respectively.
Regarding `CC1CN(c2ncc(C(=O)N(Cc3ccccc3)C(C)C)c(-c3ccccc3F)n2)CC(C)O1` (stereo not drawn) [compound 69], the IC50 is above 10 µM at NaV1.3, 2 to 10 µM on CaV2.2 and above 10 µM on NaV1.8.
Consider `CC(C)N(C(=O)c1cnc(N2CCCCC2)nc1-c1ccccc1F)c1ccc2c(c1)OCO2` [compound 70], for which the half-maximal inhibitory concentration (IC50) is 2 to 10 µM against NaV1.3, below 2 µM on CaV2.2 and above 10 µM against NaV1.8.
Regarding `O=C(c1cnc(N2CCOCC2)nc1-c1ccccc1F)N1CC=C(c2ccc(F)cc2)CC1` [compound 71], the IC50 at NaV1.3, against CaV2.2 and at NaV1.8 was above 10 µM throughout.
With `CC(C)N(Cc1ccccc1)C(=O)c1cnc(Nc2cccc(C(N)=O)c2)nc1-c1ccccc1F` [compound 73], the IC50 against NaV1.3, on CaV2.2 and against NaV1.8 was above 10 µM throughout.
In the case of `COc1cccc(CN(C(=O)c2cnc(N3CCOCC3)nc2-c2ccccc2F)C(C)C)c1` [compound 74], the IC50 on NaV1.3 is 2 to 10 µM; against CaV2.2, 2 to 10 µM; against NaV1.8, above 10 µM.
`N#CCCN(Cc1ccccc1)C(=O)c1cnc(N2CCOCC2)nc1-c1ccccc1F` [compound 75]: the IC50 on NaV1.3, on CaV2.2 and against NaV1.8 was above 10 µM in each case.
Consider `CC(C)N(C(=O)c1cnc(N2CCOCC2)nc1-c1ccccc1F)c1cccc2ccccc12` [compound 76], for which the concentration for half-maximal inhibition (IC50) at NaV1.3, against CaV2.2 and at NaV1.8 was above 10 µM each time.
Regarding `O=C(c1cnc(N2CCCCC2)nc1-c1ccccc1F)N(Cc1ccc2c(c1)CCO2)C1CC1` [compound 77], the IC50 on NaV1.3 is 2 to 10 µM; against CaV2.2, 2 to 10 µM; on NaV1.8 it was above 10 µM.
Take `CC(C)N(Cc1ccccc1)C(=O)c1cnc(N2CCc3ccccc3C2)nc1-c1ccccc1F` [compound 78]: the 50% inhibitory concentration (IC50) against NaV1.3 is 2 to 10 µM; against CaV2.2 it was below 2 µM; at NaV1.8, 2 to 10 µM.
`O=C(NC1CC1)c1cnc(N2CCOCC2)nc1-c1ccccc1F` [compound 79]: the 50% inhibitory concentration (IC50) against NaV1.3, against CaV2.2 and against NaV1.8 was above 10 µM each time.
Take `O=C(c1cnc(N2CCSCC2)nc1-c1ccccc1F)N(Cc1ccccc1)C1CCC1` [compound 80]: the IC50 at NaV1.3 is 2 to 10 µM; against CaV2.2, 2 to 10 µM; against NaV1.8 it was above 10 µM.
For the molecule `CCC(COC)N(Cc1ccccc1)C(=O)c1cnc(N2CCSCC2)nc1-c1ccccc1F` (stereo not drawn) [compound 81], the IC50 is 2 to 10 µM at NaV1.3, 2 to 10 µM against CaV2.2 and above 10 µM against NaV1.8.
In the case of `CC(C)N(C(=O)c1cnc(N2CCCCC2)nc1-c1ccccc1Cl)c1ccccc1` [compound 82], the half-maximal inhibitory concentration (IC50) was above 10 µM against NaV1.3, 2 to 10 µM on CaV2.2 and above 10 µM at NaV1.8.
Turning to `CCN(CCOC)c1ncc(C(=O)N(Cc2ccccc2)C(C)C)c(-c2ccccc2F)n1` [compound 83], the 50% inhibitory concentration (IC50) is 2 to 10 µM on NaV1.3, below 2 µM on CaV2.2 and 2 to 10 µM on NaV1.8.
For `CC1COc2ccccc2N1C(=O)c1cnc(N2CCOCC2)nc1-c1ccccc1F` (stereo not drawn) [compound 84], the IC50 at NaV1.3, against CaV2.2 and against NaV1.8 was above 10 µM each time.
